Read-outs that look alike come from different tables or passages of the source.
Key:
[1] = Transport (permeability) of ginsenosides in CaCo-2 cell monolayers; type: in vitro ADME; details: human
Method: (§1) CaCo-2 cells (passage no 41–43) were seeded onto collagen-coated permeable support (1.0 μm pore size) in a 24-well plate at a density of 2.5 × 10^4 cells/insert and cultured for 21 days in Dulbecco’s modified eagle’s medium supplemented with 10% fetal bovine serum, 1% non-essential amino acids, and 1% penicillin-streptomycin at 37 °C in a humidified atmosphere (5% CO2/95% air). After confirming that the transepithelial electrical resistance (TEER) of the CaCo-2 cell monolayer was over 400 Ω·cm^2, Apical to basal (A to B) transport and B to A transport of ginsenosides using 50 µM, GRb1 was investigated as previously described. The same permeability study was performed using 50 µM GRb2, GRc, GRd, GRg3, GRh2, GF2, CK, PPD, GRe, GRf, GRg1, GRh1, GF1, or PPT.
(§2) For the transport study of ginsenosides in CaCo-2 cells and LLC-PK1-P-gp cells, the ginsenoside transport rate in the A to B or B to A directions was calculated from the slope of the regression line from the mean transported amounts versus time plot. The apparent permeability (Papp) was calculated using Equation (1). (1) Papp (×10^−6 cm/s)=transport rate (nmol/min)/concentration(μM)×area(cm^2)×60s
(§3) The efflux ratio was calculated by dividing the Papp of ginsenosides from the B to A direction by that from the A to B direction.

LAB = assay: In vitro RGE fermentation with LAB; type: in vitro ADME
Method: To identify the effects of LAB on ginsenoside metabolism, an in vitro fermentation study was performed according to the method of Jeon et al., with slight modifications. Briefly, RGE (10 mL, 1 pouch) and 2 g LAB (containing 1 billion CFU) were suspended in 10 mL autoclaved MRS broth (550 mg broth powder dissolved in 10 mL water). For the 15 ginsenosides, individual ginsenosides (10 μM each) and 2 g of LAB were suspended in 20 mL of autoclaved MRS broth (550 mg broth powder dissolved in 20 mL water). The mixture was incubated for 7 days in a shaking incubator at 37 °C and 300 rpm, and a 0.1 mL aliquot of the incubation mixture was collected on days 0, 3, 5, and 7. The incubation medium was diluted 100-fold with distilled water and stored at −80 °C to analyze ginsenosides using the LC-MS/MS system.
To measure the metabolic activity of ginsenosides, the formation rate of ginsenosides (pmol/day) was calculated by dividing the slope of the regression line by the amount of deglycosylated ginsenosides versus the incubation time plot by the initial concentration of individual ginsenosides.

[2] = Pharmacokinetic study of ginsenosides in healthy humans after repeated oral RGE with or without LAB; type: in vivo, human
Method: A single-sequence study consisting of two periods was conducted on five healthy male subjects (body weight > 50 kg and age > 19 years) for 29 days. During the first period of the study (RGE treatment group), three pouches of RGE (30 mL, 104.1 mg of total ginsenosides) were administered to 5 subjects once daily for 14 days. On the 14th day, the subjects were admitted to the Clinical Trial Center of KNUH at 7 AM and underwent the last RGE administration at approximately 8–9 AM. Blood samples (approximately 3 mL) were collected at 0, 4, 6, 8, 10, 12, 13, 14, and 24 h after the last dose. A saline-locked angiocatheter was placed on the forearm of each subject’s hand. After discarding 1 mL of blood derived from the catheter, 3 mL of blood was drawn into a vacutainer tube containing heparin and centrifuged at 3000× g for 10 min. The supernatant plasma samples were stored at −80 °C until ginsenoside analysis.
In the second half of the study (RGE + LAB treatment group), 3 pouches of RGE (30 mL, 104.1 mg of total ginsenosides) and 1 pouch of LAB (1 billion CFU/2 g) were co-administered once daily for 14 days. On the […], the subjects were admitted to the Clinical Trial Center of KNUH at 7 AM and received the last red ginseng dose at approximately 8–9 AM. Blood samples (approximately 3 mL) were withdrawn at 0, 4, 6, 8, 10, 12, 13, 14, and 24 h intervals after the last dose and centrifuged at 3000× g for 10 min; the supernatant plasma samples were stored at −80 °C.
Briefly, to analyze GRb1, GRb2, GRc, GRd, GRe, GRf, GRg1, GRg3, GF1, and GF2, 400 μL of an internal standard (IS; 0.05 ng/mL berberine in methanol) was added to 100 μL of plasma. The mixture was vortexed for 15 min and centrifuged at 16,000× g for 5 min. After centrifugation, 400 μL of the supernatant was evaporated using a speed-dry vacuum concentrator (Christ, Osterode am Harz, Germany). The residue was reconstituted using 200 μL of 70% methanol supplemented with 0.1% formic acid, and a 10 μL aliquot was injected into the LC-MS/MS system. Chromatographic separation was performed using a Polar RP column (150 × 2.0 mm, 4.0 μm particle size; Phenomenex, Torrance, CA, USA) using a mobile phase consisting of 0.1% formic acid in water (phase A) and 0.1% formic acid in methanol (phase B). The following elution gradient was used: 69% of phase B for 0–2.0 min, 69–85% of phase B for 2.0–4.0 min, and 85–69% of phase B for 6.0–6.5 min. The flow rate was 0.27 mL/min.
The mixture was vortexed for 10 min and centrifuged at 16,000× g for 5 min. After centrifugation, the samples were frozen at −80 °C for 4 h. The upper layer was transferred to a clean tube and evaporated. The residue was reconstituted using 200 μL of 80% methanol supplemented with 0.1% formic acid, and a 10 μL aliquot was injected into the LC-MS/MS system. Chromatographic separation was performed using a Luna C18 column (150 × 2.0 mm, 3.0 μm particle size; Phenomenex, Torrance, CA, USA) and using a mobile phase consisting of water containing 0.1% formic acid: methanol containing 0.1% formic acid = 8:92 (v/v) at a flow rate of 0.15 mL/min.
The quantification of ginsenosides was carried out using multiple reaction monitoring in positive ionization mode, as previously described.
Finally, pharmacokinetic parameters were calculated using non-compartmental methods (WinNonlin version 5.1; Pharsight Co., Certara, NJ, USA). Statistical analysis was performed by Student’s t-test to compare the two groups using IBM SPSS Statistics for Windows (version 25.0; IBM Corp., Armonk, NY, USA). Differences were considered significant at p < 0.05.

[3] = in rats; cited from earlier work
CaCo-2 cells = assay: Transport (permeability) of ginsenosides in CaCo-2 cell monolayers; type: in vitro ADME; details: Caco-2
Method: as §1, §2, §3

P-gp = target: T1, P-gp (Homo sapiens, UniProt P08183); assay: Transport of ginsenosides in P-gp-overexpressing LLC-PK1-P-gp cells; type: in vitro ADME
T1 construct: host or cells: LLC-PK1-P-gp cells (passage no. 25–28)
T1 sequence (P08183 whole entry): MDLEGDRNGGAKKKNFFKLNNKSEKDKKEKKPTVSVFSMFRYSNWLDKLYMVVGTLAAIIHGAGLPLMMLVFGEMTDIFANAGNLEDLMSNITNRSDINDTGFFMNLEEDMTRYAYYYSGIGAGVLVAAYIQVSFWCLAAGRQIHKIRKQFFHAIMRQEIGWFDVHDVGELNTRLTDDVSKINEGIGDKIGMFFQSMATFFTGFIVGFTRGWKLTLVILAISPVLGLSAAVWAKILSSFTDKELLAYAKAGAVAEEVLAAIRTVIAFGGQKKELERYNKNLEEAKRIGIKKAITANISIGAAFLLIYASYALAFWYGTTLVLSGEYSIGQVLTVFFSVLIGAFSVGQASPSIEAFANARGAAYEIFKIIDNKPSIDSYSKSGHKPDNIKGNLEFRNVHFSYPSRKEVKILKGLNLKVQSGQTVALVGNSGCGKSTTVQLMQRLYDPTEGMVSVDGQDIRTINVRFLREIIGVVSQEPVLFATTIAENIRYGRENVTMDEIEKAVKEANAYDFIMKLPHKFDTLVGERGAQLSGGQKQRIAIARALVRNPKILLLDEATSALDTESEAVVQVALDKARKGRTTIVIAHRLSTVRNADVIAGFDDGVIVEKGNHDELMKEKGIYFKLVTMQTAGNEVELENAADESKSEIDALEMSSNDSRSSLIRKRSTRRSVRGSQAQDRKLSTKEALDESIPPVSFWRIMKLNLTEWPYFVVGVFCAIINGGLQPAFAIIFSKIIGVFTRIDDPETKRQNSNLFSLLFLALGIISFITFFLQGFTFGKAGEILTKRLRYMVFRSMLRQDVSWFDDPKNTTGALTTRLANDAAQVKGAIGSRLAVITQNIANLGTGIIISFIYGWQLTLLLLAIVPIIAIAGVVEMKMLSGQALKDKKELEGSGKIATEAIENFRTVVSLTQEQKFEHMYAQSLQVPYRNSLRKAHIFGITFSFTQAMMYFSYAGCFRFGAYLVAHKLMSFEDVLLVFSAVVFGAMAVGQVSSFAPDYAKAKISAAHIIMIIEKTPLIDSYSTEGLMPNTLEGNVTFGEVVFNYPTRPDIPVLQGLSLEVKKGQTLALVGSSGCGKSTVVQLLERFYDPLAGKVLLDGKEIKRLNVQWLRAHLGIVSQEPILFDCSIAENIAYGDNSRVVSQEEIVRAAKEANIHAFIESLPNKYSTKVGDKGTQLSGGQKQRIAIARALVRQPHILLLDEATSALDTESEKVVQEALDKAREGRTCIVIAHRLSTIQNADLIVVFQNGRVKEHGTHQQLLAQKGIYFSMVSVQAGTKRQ
Method: LLC-PK1-P-gp cells (passage no. 25–28) were seeded onto collagen-coated permeable support (1.0 μm pore size) in 24-well plates at a density of 2.5 × 10^4 cells/insert and grown for 5 days with TEER values of over 500 Ω·cm^2 [24]. The A to B transport and B to A transport of GRg3, GRh2, CK, PPD, GRg1, GRh1, and PPT (20 μM each) were measured as previously described. The concentration dependency in the B to A transport of GRh2, CK, PPD, and PPT was measured in the range of 6.25–200 μM for GRh2, CK, PPD, and PPT.
as §2, §3
To measure the kinetic parameters of the concentration dependence on the P-gp-mediated ginsenoside efflux, the ginsenoside transport rate in the B to A direction (ν) versus the ginsenoside concentration (S) plot was fitted in the Michaelis–Menten Equation (2) using Sigma Plot (version 12.0, Systat Software Inc. Chicago, IL, USA). (2) ν=Vmax×S/Km+S

[4] = RGE incubated with LAB (1 billion CFU) for 7 days at 37 °C, result in words
[5] = CaCo-2 cell monolayers, 50 µM ginsenoside, read-out: A to B Papp

SMILES	Relative abundance / metabolic activity following fermentation of RGE with LAB (LAB; [4])	Papp A→B at 50 µM [1, 5] [×10⁻⁶ cm/s]	Cmax ([2]; human, in vivo, po) [ng/mL]	MRT ([2]; human, in vivo, po) [h]	Tmax ([2]; human, in vivo, po) [h]	AUC ([2]; human, in vivo, po, 104.1 mg) [ng·h/mL]	A to B Papp (CaCo-2 cells)	Relative abundance / metabolic activity following fermentation of RGE with LAB (LAB)	also measured
CC(C)=CCCC(C)(OC1OC(CO)C(O)C(O)C1O)C1CCC2(C)C1C(O)CC1C3(C)CCC(O)C(C)(C)C3C(O)CC12C (centres unmarked) [GF1]	remained unchanged								Papp A→B at 50 µM ([1]; Caco-2): < 0.3 ×10⁻⁶ cm/s
CC(C)=CCC[C@](C)(O[C@@H]1O[C@H](CO[C@@H]2O[C@H](CO)[C@@H](O)[C@H](O)[C@H]2O)[C@@H](O)[C@H](O)[C@H]1O)[C@H]1CC[C@]2(C)[C@@H]1[C@H](O)C[C@@H]1[C@@]3(C)CC[C@H](O[C@@H]4O[C@H](CO)[C@@H](O)[C@H](O)[C@H]4O[C@@H]4O[C@H](CO)[C@@H](O)[C@H](O)[C@H]4O)C(C)(C)[C@@H]3CC[C@]12C [GRb1, ginsenoside Rb1]	marked decrease	< 0.3							Change of AUC / pharmacokinetic parameters by RGE and LAB co-administration ([2]; RGE + LAB group versus RGE group, humans, result in words): not different; Cmax ([2]; male, human, plasma, po, 104.1 mg total ginsenosides/day, RGE group, human plasma, RGE oral 14 days, mean ± SD, n = 5, read-out: Cmax): 7.1 ± 3.2 ng/mL; MRT ([2]; male, human, plasma, po, 104.1 mg total ginsenosides/day, RGE group, human plasma, RGE oral 14 days, mean ± SD, n = 5, read-out: MRT): 18.3 ± 1.1 h; Tmax ([2]; male, human, plasma, po, 104.1 mg total ginsenosides/day, RGE group, human plasma, RGE oral 14 days, mean ± SD, n = 5, read-out: Tmax): 5.3 ± 4.6 h; Cmax ([2]; male, human, plasma, po, RGE + LAB group, human plasma, oral 14 days, mean ± SD, n = 5, read-out: Cmax): 6.2 ± 2.9 ng/mL; MRT ([2]; male, human, plasma, po, RGE + LAB group, human plasma, oral 14 days, mean ± SD, n = 5, read-out: MRT): 16.9 ± 0.5 h; Tmax ([2]; male, human, plasma, po, RGE + LAB group, human plasma, oral 14 days, mean ± SD, n = 5, read-out: Tmax): 6.8 ± 1.1 h; AUC ([2]; male, RGE + LAB group, human plasma, RGE plus LAB (1 billion CFU/2 g) once daily oral 14 days, AUC 0 to 24 h, mean ± SD, n = 5, read-out: AUC): 164 ± 77.3 ng·h/mL; AUC ([2]; male, RGE group, human plasma, RGE once daily oral 14 days (104.1 mg total ginsenosides/day), AUC 0 to 24 h, mean ± SD, n = 5, read-out: AUC): 185 ± 80.6 ng·h/mL; Oral bioavailability (BA) [3]: less than 5%
CC(C)=CCC[C@](C)(O[C@@H]1O[C@H](CO[C@@H]2O[C@@H](CO)[C@H](O)[C@H]2O)[C@@H](O)[C@H](O)[C@H]1O)[C@H]1CC[C@]2(C)[C@@H]1[C@H](O)C[C@@H]1[C@@]3(C)CC[C@H](O[C@@H]4O[C@H](CO)[C@@H](O)[C@H](O)[C@H]4O[C@@H]4O[C@H](CO)[C@@H](O)[C@H](O)[C@H]4O)C(C)(C)[C@@H]3CC[C@]12C [GRc]			5.1 ± 2.4	18.0 ± 1.2	6.2 ± 4.0	118.4 ± 58.2	below 0.3 × 10^−6 cm/s	marked decrease	
CC(C)=CCC[C@](C)(O[C@@H]1O[C@H](CO)[C@@H](O)[C@H](O)[C@H]1O)[C@H]1CC[C@]2(C)[C@@H]1[C@H](O)C[C@@H]1[C@@]3(C)CC[C@H](O)C(C)(C)[C@@H]3[C@@H](O[C@@H]3O[C@H](CO)[C@@H](O)[C@H](O)[C@H]3O[C@@H]3O[C@@H](C)[C@H](O)[C@@H](O)[C@H]3O)C[C@]12C [GRe]							below 0.3 × 10^−6 cm/s	marked decrease	
CC(C)=CCC[C@](C)(O)[C@H]1CC[C@]2(C)[C@@H]1[C@H](O)C[C@@H]1[C@@]3(C)CC[C@H](O[C@@H]4O[C@H](CO)[C@@H](O)[C@H](O)[C@H]4O[C@@H]4O[C@H](CO)[C@@H](O)[C@H](O)[C@H]4O)C(C)(C)[C@@H]3CC[C@]12C [GRg3]			7.2 ± 4.8	7.6 ± 2.8	7.2 ± 3.0	94.1 ± 50.0	below 0.3 × 10^−6 cm/s	remained unchanged	A to B permeability (P-gp; LLC-PK1): 0.07±0.01 × 10^−6 cm/s; B to A permeability (P-gp; LLC-PK1): 0.07±0.01 × 10^−6 cm/s
CC(C)=CCCC(C)(O)C1CCC2(C)C1C(O)CC1C3(C)CCC(O)C(C)(C)C3C(OC3OC(CO)C(O)C(O)C3O)CC12C (centres unmarked) [GRh1]	significantly increased	< 0.3							efflux ratio at 20 μM (P-gp; pig, LLC-PK1, LLC-PK1-P-gp cells, 20 μM, B to A Papp divided by A to B Papp, read-out: ER): 0.9; Papp A→B at 20 μM (P-gp; pig, LLC-PK1-P-gp cells, 20 μM, mean ± SD, n = 3, read-out: A to B permeability): 0.21 ± 0.09 ×10⁻⁶ cm/s; Papp B→A at 20 μM (P-gp; pig, LLC-PK1-P-gp cells, 20 μM, mean ± SD, n = 3, read-out: B to A permeability): 0.18 ± 0.01 ×10⁻⁶ cm/s

Source: PMC9775652, “Concomitant Administration of Red Ginseng Extract with Lactic Acid Bacteria Increases the Plasma Concentration of Deglycosylated Ginsenosides in Healthy Human Subjects” (Biomolecules, 2022)
